Experimental data from patent US20040006042A1, “Diaminopyrimidines and combination therapies effective for treatment of P-glycoprotein positive cancers” (priority 1998, published 2004).
Converted amounts (≈) assume the structure as drawn. “And” between values parts separate entries of the source, which are not always exact repeats. Equal values may be shown once. Where a name gives a salt, the structure may show the parent alone. Read-outs that look alike come from different tables or passages of the source.

Experiments:
C26/10 tumor = assay: C26/10 s.c. tumor growth delay study; type: in vivo, CD2F1 mice; details: tumor growth delay to 750 mg, s.c. implant, treated i.p. Days 3-7 and 10-14; >5 to 6 days = antitumor effect
Procedure: (§1) To test compounds of the present invention in vivo, the following methodology was used. P388 leukemia and its Adriamycin resistant subline, P388/ADR were passed weekly in DBA/2 mice as i.p. implants of 10^5 and 10^6 cells, respectively. Animals bearing P388/ADR passage were treated with 7 mg/kg Adriamycin on Day 3 post-implant as a resistance selection pressure. C26/clone 10 was passed every 2 weeks into Balb/c mice as tumor fragments (approximately 30 mg) which were obtained from tumors 1 g in mass.
For the tumor growth delay studies with C26/10, CD2F1 mice were implanted s.c. with 30 mg tumor fragments in the region of the right axilla with the aid of a trocar on Day 0. Animals were treated i.p. with test agents in the vehicles described above on Days 3-7 and 10-14. Adriamycin was dosed i.p. in saline on Days 5, 9, and 13. Tumors in the treated and control groups were measured twice weekly in two perpendicular dimensions and tumor mass calculated according to the formula: mass (mg)=(a×b^2)/2 where “b” is the smallest tumor dimension and “a” is the largest. Calculations of tumor growth delay, defined as the median time (in days) for the treated tumors to reach 750 mg in size minus the median time (in days) for the control tumors to reach 750 mg in size, were as described previously (Schabel, 1977; Leopold, 1985; Elliot, 1984). Growth delays in excess of 5 to 6 days in the C26/10 model are considered to be an antitumor effect.

P388/ADR leukemia = assay: In vivo P388/ADR leukemia life span study; set-up: species or system CD2F1 mice; details: for P388/ADR T/C: maximum tolerated dose, i.p. Days 3-11 (Adriamycin Days 3, 7, 11), >130 = antitumor effect
P388S cells = assay: In vitro growth inhibition of P388S cells; type: cell-based; details: for IC50: Mus musculus, P388/S, read-out: P388S IC50
[1] = tested on: Colon 26/clone 10 (C26/10); assay: Colon 26/clone 10 i.p. life span study; type: in vivo, CD2F1 mice; details: for C26 ip T/C: i.p. implant, treated i.p. Days 3-7 and 10-14 (Adriamycin Days 5, 9, 13), >130 = antitumor effect
Procedure: as §1
Colon 26/clone 10 (C26/10) life span studies were conducted in CD2F1 mice. C26/C10 cells were implanted i.p. on Day 0. Animals were treated i.p. with test agents in the vehicles described above on Days 3-7 and 10-14. Adriamycin was dosed i.p. in saline on Days 5, 9, and 13. […] Percent T/C values in excess of 130 are indicative of an antitumor effect in this model.

dihydrofolate reductase = target: T1, dihydrofolate reductase (Homo sapiens, UniProt P00374); assay: Inhibition of dihydrofolate reductase (Table 1); type: biochemical
T1 sequence (P00374 1-187): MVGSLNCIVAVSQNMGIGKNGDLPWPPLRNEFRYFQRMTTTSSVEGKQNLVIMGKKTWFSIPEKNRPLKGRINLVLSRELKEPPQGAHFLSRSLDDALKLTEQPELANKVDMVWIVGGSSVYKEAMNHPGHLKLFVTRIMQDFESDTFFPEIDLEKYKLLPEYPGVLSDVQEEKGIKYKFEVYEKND

P388/ADR cells [2] = assay: In vitro growth inhibition of P388/ADR cells; type: cell-based, murine; details: for IC50: Mus musculus, P388/ADR; for R/S: ratio resistant (P388/ADR) to sensitive (P388S) IC50
P388 leukemia = assay: In vivo P388 leukemia life span study; set-up: species or system CD2F1 mice; details: maximum tolerated dose, i.p. Days 3-11 (Adriamycin Days 3, 7, 11); >130 = antitumor effect
[3] = tested on: P388 murine leukemia cells; assay: Combination of antifolates with FU and LV on P388 proliferation; type: cell-based; details: for Antifol + FU / Antifol + LV / Antifol + LV + FU: antifolate 1.0 nM 24 hours; for Antifol + FU / Antifol + LV + FU: 5 μM FU final 4 hours; for Antifol + LV / Antifol + LV + FU: LV 10 μM final 4.5 hours; for Antifol: antifolate 1.0 nM, 24 hours
[4] = tested on: HT29 human colon adenocarcinoma cells
[5] = tested on: HT29 human colon adenocarcinoma cells; assay: Combination of antifolates with FU and LV on HT-29 proliferation (sulphorhodamine B); details: for Antifol + LV: antifolate 62.5 nM 24 hours, LV 10 μM final 4.5 hours; for Antifol: antifolate 62.5 nM, 24 hours
P388/ADR cells [6] = assay: Combination of antifolates with FU and LV on P388/ADR proliferation; type: cell-based, murine; details: P388/ADR; for Antifol + FU / Antifol + LV / Antifol + LV + FU: antifolate 1 nM 24 hours; for Antifol + FU / Antifol + LV + FU: 5 μM FU final 4 hours; for Antifol + LV / Antifol + LV + FU: LV 10 μM final 4.5 hours; for Antifol: antifolate 1 nM, 24 hours
[7] = tested on: C26 murine colon tumor cells; assay: Combination of antifolates with FU and LV on C26 proliferation; type: cell-based; details: C26; 5 μM FU alone, 4 hours

Compound: Cc1nc(N)nc(N)c1N1CCN(c2ccc(C=O)cc2)CC1 [Example 1]
- C26 sc T-C (C26/10 tumor): 7.6 days
- P388/ADR T/C (P388/ADR leukemia): 169%
- IC50 (P388S cells; in vitro): 0.005 µg/mL (≈ 0.016 µM)
- C26 ip T/C [1]: 263%
- activity against C26 colon tumor in vivo ([1]; in words, T/C×100>130 represents in vivo antitumor activity): curative
- Ki (dihydrofolate reductase): 0.073 nM
- IC50 (P388/ADR cells [2]; in vitro): 0.0068 µg/mL (≈ 0.0218 µM)
- R/S (P388/ADR cells [2]): 1.1
- P388S T/C (P388 leukemia): 190%

Compound: CC(=O)c1ccc(N2CCN(c3c(C)nc(N)nc3N)CC2)cc1F [H, 1-{4-[4-(2,4-Diamino-6-methyl-pyrimidin-5-yl)-piperazin-1-yl]-2-fluoro-phenyl}-ethanone]
- C26 sc T-C (C26/10 tumor): 9.4 days
- IC50 (P388S cells; in vitro): 0.0026 µg/mL (≈ 0.00755 µM)
- Antifol + FU [3]: 20% of control
- Antifol + LV [3]: 86% of control
- Antifol + LV + FU [3]: 15% of control
- Antifol [3]: 82% of control
- Antifol + FU [4]: 52% of control
- Antifol + LV + FU [4]: 40% of control
- C26 ip T/C [1]: 169%
- Antifol + LV [5]: 77% of control
- Antifol [5]: 74% of control
- IC50 (P388/ADR cells [2]; in vitro): 0.029 µg/mL (≈ 0.0842 µM)
- R/S (P388/ADR cells [2]): 1.1
- P388S T/C (P388 leukemia): 170%

Compound: Cc1nc(N)nc(N)c1-c1ncncc1-c1ccc(C(=O)O)cc1 [Compound F, 4-[4-(2,4-Diamino-6-methyl-pyrimidin-5-yl)-pyrimidin-5-yl]-benzoic acid]
- IC50 (P388S cells; in vitro): 0.033 µg/mL (≈ 0.102 µM)
- IC50 (P388/ADR cells [2]; in vitro): 0.04 µg/mL (≈ 0.124 µM)
- R/S (P388/ADR cells [2]): 1.1
- P388S T/C (P388 leukemia): 260%

Compound: Nc1ncc(N2CCN(c3ccc(C(=O)O)cc3)CC2)c(N)n1 [G]
- C26 sc T-C (C26/10 tumor): 4.9 days
- P388/ADR T/C (P388/ADR leukemia): 245%
- P388S IC50 (P388S cells; in vitro): 0.076 µg/mL
- C26 ip T/C [1]: 202%
- P388/ADR IC50 (P388/ADR cells [2]; in vitro): 0.074 µg/mL
- R/S (P388/ADR cells [2]): 0.98
- P388S T/C (P388 leukemia): 220%

Compound: Cc1nc(N)nc(N)c1N1CCN(c2ccc(/C=N/OCCN)cc2)CC1 [Example 12, 4-[4-(2,4-Diamino-6-methyl-pyrimidin-5-yl)-piperazin-1-yl]-benzaldehyde O-(2-amino-ethyl)-oxime, dihydrochloride]
- C26 sc T-C (C26/10 tumor): 5.2 days
- IC50 (P388S cells): 0.011 µg/mL
- Antifol + FU [3]: 20% of control
- Antifol + LV [3]: 97% of control
- Antifol + LV + FU [3]: 16% of control
- Antifol [3]: 100% of control
- Antifol + FU [4]: 35% of control
- Antifol + LV + FU [4]: 27% of control
- Antifol + LV [5]: 67% of control
- Antifol [5]: 52% of control
- IC50 (P388/ADR cells [2]; in vitro): 0.0117 µg/mL
- R/S (P388/ADR cells [2]): 1.1
- Antifol + FU (P388/ADR cells [6]): 30% of control
- Antifol + LV (P388/ADR cells [6]): 65% of control
- Antifol + LV + FU (P388/ADR cells [6]): 25% of control
- Antifol (P388/ADR cells [6]): 65% of control

Compound: CC(=O)c1ccc(N2CCN(c3c(C)nc(N)nc3N)CC2)cc1 [D, 1-{4-[4-(2,4-Diamino-6-methyl-pyrimidin-5-yl)-piperazin-1-yl]-phenyl}-ethanone]
- C26 sc T-C (C26/10 tumor): 17.3 days
- P388/ADR T/C (P388/ADR leukemia): 180%
- IC50 (P388S cells; in vitro): 0.01 µg/mL (≈ 0.0306 µM)
- Antifol + FU [3]: 10% of control
- Antifol + LV [3]: 110% of control
- Antifol + LV + FU [3]: 5% of control
- Antifol [3]: 70% of control
- Antifol + FU [4]: 50% of control
- Antifol + LV + FU [4]: 42% of control
- C26 ip T/C [1]: 171%
- Ki (dihydrofolate reductase): 0.131 nM
- Antifol + LV [5]: 90% of control
- Antifol [5]: 92% of control
- IC50 (P388/ADR cells [2]; in vitro): 0.01 µg/mL (≈ 0.0306 µM)
- R/S (P388/ADR cells [2]): 1
- P388S T/C (P388 leukemia): 182%

Compound: Cc1nc(N)nc(N)c1N1CCN(c2ccc(C(=O)NN)cc2)CC1 [Example 11, 4-[4-(2,4-Diamino-6-methyl-5-pyrinidinyl)-1-piperazinyl]benzoic acid, hydrazide]
- P388/ADR T/C (P388/ADR leukemia): 161%
- IC50 (P388S cells; in vitro): 0.0105 µg/mL (≈ 0.0307 µM)
- Antifol + FU [4]: 42% of control
- Antifol + LV + FU [4]: 33% of control
- C26 ip T/C [1]: 164%
- Antifol + LV [5]: 80% of control
- Antifol [5]: 87% of control
- IC50 (P388/ADR cells [2]; in vitro): 0.0161 µg/mL (≈ 0.047 µM)
- R/S (P388/ADR cells [2]): 1.5
- P388S T/C (P388 leukemia): 195%
- Antifol + FU (P388/ADR cells [6]): 48% of control
- Antifol + LV (P388/ADR cells [6]): 80% of control
- Antifol + LV + FU (P388/ADR cells [6]): 16% of control
- Antifol (P388/ADR cells [6]): 77% of control

Compound: Cc1nc(N)nc(N)c1N1CCN(c2ccc(C(=O)N(C)N)cc2)CC1 [Example 13, 4-[4-(2,4-Diamino-6-methyl-5-pryimidinyl)-1-piperazinyl]benzoic acid, 1-methylhydrazide]
- Antifol + FU [3]: 10% of control
- Antifol + LV [3]: 85% of control
- Antifol + LV + FU [3]: 7% of control
- Antifol [3]: 85% of control

Compound: Cc1nc(N)nc(N)c1N1CCN(c2ccc(S(C)(=O)=O)cc2)CC1 [E]
- Ki (dihydrofolate reductase): 0.138 nM

Compound: COc1cccc2c1C(=O)c1c(O)c3c(c(O)c1C2=O)C[C@@](O)(C(=O)CO)C[C@@H]3O[C@H]1C[C@H](N)[C@H](O)[C@H](C)O1 [Adriamycin, reference compound]
- activity against P388/ADR tumors in vivo (P388/ADR leukemia; in words): inactive
- P388/ADR T/C (P388/ADR leukemia): 108%
- IC50 (P388S cells; in vitro): 0.075 µg/mL (≈ 0.138 µM)
- C26 ip T/C [1]: 180%
- IC50 (P388/ADR cells [2]; in vitro): 3.9 µg/mL (≈ 7.18 µM)
- R/S (P388/ADR cells [2]): 52
- P388S T/C (P388 leukemia): 250%

Compound: Cc1nc(N)nc(N)c1N1CCN(c2ccc(C(=O)O)cc2)CC1 [B, 4-[4-(2,4-Diamino-6-methyl-pyrimidin-5-yl)-piperzain-1-yl]-benzoic acid]
- Ki (dihydrofolate reductase): 0.201 nM
- Antifol + FU (P388/ADR cells [6]): 30% of control
- Antifol + LV (P388/ADR cells [6]): 70% of control
- Antifol + LV + FU (P388/ADR cells [6]): 28% of control
- Antifol (P388/ADR cells [6]): 62% of control

Compound: Cc1nc(N)nc(N)c1N1CCN(c2ccc(CNC(CCC(=O)O)C(=O)O)cc2)CC1 (stereo not shown) [A]
- Ki (dihydrofolate reductase; read-out: Ki): 0.053 nM

Compound: O=c1[nH]cc(F)c(=O)[nH]1 [FU, 5-fluorouracil, reference compound]
- FU ([3]; 5 μM FU alone, 4 hours): 90% of control and 90* percent of control
- FU [7]: 72% of Control
- FU (P388/ADR cells [6]; 5 μM FU alone, 4 hours): 90% of control and 90* percent of control

Compound: CCOC(=O)CCC(NC(=O)c1ccc(N2CCN(c3c(N)nc(N)nc3CC)CC2)cc1)C(=O)OCC (stereo not shown) [C, 2-{4-[4-(2,4-Diamino-6-ethyl-pyrimidin-5-yl)-pierazin-1-yl]-benzoylamino}pentanedioic acid diethyl ester]
- Ki (dihydrofolate reductase): 0.109 nM
- Antifol + FU (P388/ADR cells [6]): 40% of control
- Antifol + LV (P388/ADR cells [6]): 80% of control
- Antifol + LV + FU (P388/ADR cells [6]): 30% of control
- Antifol (P388/ADR cells [6]): 88% of control
